Assays:
PAR2ΔSP = molecular target: T1, PAR2ΔSP (Homo sapiens, UniProt P55085); assay: FLIPR intracellular Ca2+ mobilization, PAR2 without signal peptide in par1/par2 knock-out HEK293; format: cell-based; conditions: PAR2 without its signal peptide
T1 construct: expressed in transfected cells; host or cells: HEK293 cells with par1 and par2 knocked out, transient, pcDNA3.1
T1 sequence (P55085 with tags, fused parts or gaps): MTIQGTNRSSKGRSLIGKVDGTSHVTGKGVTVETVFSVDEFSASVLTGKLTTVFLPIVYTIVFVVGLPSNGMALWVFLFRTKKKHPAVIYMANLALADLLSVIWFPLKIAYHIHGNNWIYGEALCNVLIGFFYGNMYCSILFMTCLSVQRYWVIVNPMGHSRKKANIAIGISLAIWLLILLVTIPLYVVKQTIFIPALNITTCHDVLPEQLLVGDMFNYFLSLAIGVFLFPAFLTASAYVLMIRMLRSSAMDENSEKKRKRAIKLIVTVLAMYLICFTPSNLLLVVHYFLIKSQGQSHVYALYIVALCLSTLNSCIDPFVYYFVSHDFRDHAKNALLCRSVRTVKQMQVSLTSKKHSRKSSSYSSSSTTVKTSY
Experimental: FLIPR-Tetra (Molecular Device, San Jose, Calif.) was used to monitor intracellular Ca^2+ mobilization in HEK293 cells, HEK293 cells with PAR1 and PAR2 knocked-out, and cells transiently transfected with various PAR2 expression constructs. Cells were grown in 96-well polyD-lysine coated black FLIPR plates (Corning) in DMEM supplemented with 10% FCS, 1 mM pyruvate, 20 mM HEPES, at 37° C. with 5% CO2. For transient transfection, cells were grown in 96-well polyD-lysine coated black FLIPR plates and transfected using FuGENE HD (Promega, Madison, Wis.) as the transfection reagent according to the manufacturer's instructions. For samples treated with protease inhibitors, protease cocktail was added to cell culture one day after transfection and incubated overnight. Two days after transfection, cell culture media were removed, and cells were washed using HMS buffer plus 20 mM HEPES. Ca^2+ dye (Flura 3) diluted in HMS buffer plus 20 mM HEPES was used to incubate cells at RT for 40 minutes to allow Ca^2+ to enter cells. Intracellular Ca^2+ mobilization stimulated by various concentrations of ligands (trypsin, or peptide ligand) was monitored by FLIPR-Tetra as described (Liu et al., Mol. Pharmacol. 88:911-25 (2015)). The untransfected cells were used as negative controls. […]

PAR2ΔSP(R36A) = molecular target: T2, PAR2ΔSP(R36A) (Homo sapiens, UniProt P55085, R36A); assay: FLIPR intracellular Ca2+ mobilization, signal peptide-less PAR2 with Arg36Ala mutation; format: cell-based
T2 construct: expressed in transfected cells; host or cells: HEK293 cells with par1 and par2 knocked out, transient
T2 sequence (P55085 with tags, fused parts or gaps R36A): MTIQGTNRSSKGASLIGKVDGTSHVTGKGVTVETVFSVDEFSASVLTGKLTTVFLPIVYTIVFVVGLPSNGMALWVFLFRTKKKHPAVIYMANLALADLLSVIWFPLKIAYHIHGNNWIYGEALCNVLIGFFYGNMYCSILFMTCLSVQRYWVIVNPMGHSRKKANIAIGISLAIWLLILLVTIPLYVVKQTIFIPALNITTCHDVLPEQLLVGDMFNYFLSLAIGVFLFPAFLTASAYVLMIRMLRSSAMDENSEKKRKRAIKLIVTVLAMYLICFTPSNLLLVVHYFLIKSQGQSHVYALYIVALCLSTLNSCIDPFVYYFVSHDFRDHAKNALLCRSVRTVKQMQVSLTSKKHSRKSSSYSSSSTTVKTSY
Experimental: (§1) FLIPR-Tetra (Molecular Device, San Jose, Calif.) was used to monitor intracellular Ca^2+ mobilization in HEK293 cells, HEK293 cells with PAR1 and PAR2 knocked-out, and cells transiently transfected with various PAR2 expression constructs. Cells were grown in 96-well polyD-lysine coated black FLIPR plates (Corning) in DMEM supplemented with 10% FCS, 1 mM pyruvate, 20 mM HEPES, at 37° C. with 5% CO2. For transient transfection, cells were grown in 96-well polyD-lysine coated black FLIPR plates and transfected using FuGENE HD (Promega, Madison, Wis.) as the transfection reagent according to the manufacturer's instructions. For samples treated with protease inhibitors, protease cocktail was added to cell culture one day after transfection and incubated overnight. Two days after transfection, cell culture media were removed, and cells were washed using HMS buffer plus 20 mM HEPES. Ca^2+ dye (Flura 3) diluted in HMS buffer plus 20 mM HEPES was used to incubate cells at RT for 40 minutes to allow Ca^2+ to enter cells. […] The untransfected cells were used as negative controls.

PAR2ΔSPΔL = molecular target: T3, PAR2ΔSPΔL (Homo sapiens, UniProt P55085); assay: FLIPR intracellular Ca2+ mobilization, PAR2 without signal peptide and tethered ligand; format: cell-based
T3 construct: expressed in transfected cells; host or cells: HEK293 cells with par1 and par2 knocked out, transient
T3 sequence (P55085 with tags, fused parts or gaps): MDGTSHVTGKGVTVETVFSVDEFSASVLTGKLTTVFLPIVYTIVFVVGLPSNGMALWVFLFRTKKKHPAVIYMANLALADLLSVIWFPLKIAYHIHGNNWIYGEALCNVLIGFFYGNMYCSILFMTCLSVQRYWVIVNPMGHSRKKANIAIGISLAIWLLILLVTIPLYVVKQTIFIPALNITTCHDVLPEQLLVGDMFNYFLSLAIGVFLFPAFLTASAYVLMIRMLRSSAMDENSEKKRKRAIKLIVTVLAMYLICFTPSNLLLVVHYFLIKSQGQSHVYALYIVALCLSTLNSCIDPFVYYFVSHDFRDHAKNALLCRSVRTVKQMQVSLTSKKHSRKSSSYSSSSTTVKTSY
Experimental: as §1

[1] = tested on: HEK293 cells with par1 and par2 knocked-out; assay: FLIPR characterization of par1 and par2 knock-out HEK293 cells; format: cell-based, human
From the text: A PAR1, PAR2 knock-out HEK293 cell line was created by Applied StemCells (Milpitas, Calif.) using a CRISPR/Cas9 approach. Briefly, the coding region (nucleotide 374-643) of PAR1, which encodes the protein region transmembrane region 2 (TM2) to transmembrane region 3 (TM3) of PAR1, was deleted. Similarly, the coding region (281-627) of PAR2, which encodes the protein region TM2 to TM3 of PAR2, was deleted. Single cell clones were isolated. PCR analysis of the genomic DNA followed by DNA sequencing was used to confirm the deletion of the DNA fragments.
FLIPR-Tetra (Molecular Device, San Jose, Calif.) was used to monitor intracellular Ca^2+ mobilization in HEK293 cells, HEK293 cells with PAR1 and PAR2 knocked-out, and cells transiently transfected with various PAR2 expression constructs. Cells were grown in 96-well polyD-lysine coated black FLIPR plates (Corning) in DMEM supplemented with 10% FCS, 1 mM pyruvate, 20 mM HEPES, at 37° C. with 5% CO2. For transient transfection, cells were grown in 96-well polyD-lysine coated black FLIPR plates and transfected using FuGENE HD (Promega, Madison, Wis.) as the transfection reagent according to the manufacturer's instructions. […] Intracellular Ca^2+ mobilization stimulated by various concentrations of ligands (trypsin, or peptide ligand) was monitored by FLIPR-Tetra as described (Liu et al., Mol. Pharmacol. 88:911-25 (2015)). […]

PAR2(R36A) = molecular target: T4, PAR2(R36A) (Homo sapiens, UniProt P55085, R36A); assay: FLIPR intracellular Ca2+ mobilization, full length PAR2 with Arg36Ala mutation; format: cell-based
T4 construct: expressed in transfected cells; host or cells: HEK293 cells with par1 and par2 knocked out, transient
T4 sequence (P55085 26-397 R36A): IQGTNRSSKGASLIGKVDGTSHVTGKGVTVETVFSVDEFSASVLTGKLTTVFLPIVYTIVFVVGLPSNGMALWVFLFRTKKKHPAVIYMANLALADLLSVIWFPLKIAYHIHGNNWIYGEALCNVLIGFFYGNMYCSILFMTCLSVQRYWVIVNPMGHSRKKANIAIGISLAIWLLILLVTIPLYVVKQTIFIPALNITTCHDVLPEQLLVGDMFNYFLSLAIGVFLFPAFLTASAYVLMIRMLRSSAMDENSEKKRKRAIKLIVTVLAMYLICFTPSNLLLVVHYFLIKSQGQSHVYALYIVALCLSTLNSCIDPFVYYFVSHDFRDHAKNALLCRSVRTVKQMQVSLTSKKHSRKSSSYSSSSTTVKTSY
Experimental: as §1

[2] = molecular target: T5, recombinantly expressed PAR2 (Homo sapiens, UniProt P55085); assay: FLIPR intracellular Ca2+ mobilization, recombinant wild type PAR2 transiently expressed in par1/par2 knock-out HEK293; format: cell-based
T5 construct: was used to amplify the full length PAR2 cDNA coding region; expressed in transfected cells; host or cells: HEK293 cells with par1 and par2 knocked out, transient, pcDNA3.1
T5 sequence (P55085 26-397): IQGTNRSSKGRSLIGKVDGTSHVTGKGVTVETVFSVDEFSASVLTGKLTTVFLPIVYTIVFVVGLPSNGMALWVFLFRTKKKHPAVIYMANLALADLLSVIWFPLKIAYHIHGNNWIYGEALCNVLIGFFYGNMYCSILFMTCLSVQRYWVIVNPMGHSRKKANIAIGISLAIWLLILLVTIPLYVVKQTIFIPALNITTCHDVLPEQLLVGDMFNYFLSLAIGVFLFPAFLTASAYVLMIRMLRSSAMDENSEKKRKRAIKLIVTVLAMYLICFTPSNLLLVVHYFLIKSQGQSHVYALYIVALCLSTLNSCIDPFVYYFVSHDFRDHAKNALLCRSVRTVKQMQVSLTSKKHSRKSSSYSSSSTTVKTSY
Experimental: (§2) FLIPR-Tetra (Molecular Device, San Jose, Calif.) was used to monitor intracellular Ca^2+ mobilization in HEK293 cells, HEK293 cells with PAR1 and PAR2 knocked-out, and cells transiently transfected with various PAR2 expression constructs. Cells were grown in 96-well polyD-lysine coated black FLIPR plates (Corning) in DMEM supplemented with 10% FCS, 1 mM pyruvate, 20 mM HEPES, at 37° C. with 5% CO2. For transient transfection, cells were grown in 96-well polyD-lysine coated black FLIPR plates and transfected using FuGENE HD (Promega, Madison, Wis.) as the transfection reagent according to the manufacturer's instructions. For samples treated with protease inhibitors, protease cocktail was added to cell culture one day after transfection and incubated overnight. Two days after transfection, cell culture media were removed, and cells were washed using HMS buffer plus 20 mM HEPES. Ca^2+ dye (Flura 3) diluted in HMS buffer plus 20 mM HEPES was used to incubate cells at RT for 40 minutes to allow Ca^2+ to enter cells. Intracellular Ca^2+ mobilization stimulated by various concentrations of ligands (trypsin, or peptide ligand) was monitored by FLIPR-Tetra as described (Liu et al., Mol. Pharmacol. 88:911-25 (2015)). The untransfected cells were used as negative controls.

[3] = molecular target: T6, endogenously expressed PAR2 in HEK293 cells (Homo sapiens, UniProt P55085); assay: FLIPR intracellular Ca2+ mobilization, wild type HEK293 cells; format: cell-based; conditions: endogenous PAR2, HEK293 cells
T6 construct: the endogenously expressed PAR2 in HEK293 cells; endogenous in cells; host or cells: wild type HEK293 cells
T6 sequence (P55085 26-397): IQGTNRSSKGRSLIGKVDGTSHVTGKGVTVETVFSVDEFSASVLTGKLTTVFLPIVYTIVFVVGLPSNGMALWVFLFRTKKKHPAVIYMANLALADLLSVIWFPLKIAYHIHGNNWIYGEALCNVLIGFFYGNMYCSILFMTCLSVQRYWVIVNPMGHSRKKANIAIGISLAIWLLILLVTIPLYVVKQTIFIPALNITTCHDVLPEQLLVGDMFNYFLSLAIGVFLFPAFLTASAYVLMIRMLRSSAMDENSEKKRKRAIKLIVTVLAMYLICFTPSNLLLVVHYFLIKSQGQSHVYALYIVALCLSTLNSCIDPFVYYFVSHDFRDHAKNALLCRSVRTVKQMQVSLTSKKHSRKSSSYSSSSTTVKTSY
Experimental: as §2

- EC50 (PAR2ΔSP): 50 nM
- receptor response to ligand stimulation in FLIPR assay (PAR2ΔSP(R36A)): blocked
- receptor activation in FLIPR assay (PAR2ΔSPΔL): not activated
- receptor response to ligand stimulation in FLIPR assay (PAR2(R36A)): very poorly
- EC50 [2]: 1.5 nM
- EC50 [3]: 10 nM
Substance: trypsin
- response of knock-out cells to ligand [1]: lack of response
